According to paper PMC7248880, “Preclinical Incorporation Dosimetry of [^18F]FACH—A Novel ^18F-Labeled MCT1/MCT4 Lactate Transporter Inhibitor for Imaging Cancer Metabolism with PET” (Molecules, 2020):

Assay: Preclinical incorporation dosimetry: whole-body PET/CT in piglets, scaled to human, OLINDA 2.1, ICRP103
Format: in vivo, juvenile pigs
Description: Three piglets (age: ~6 weeks, weight: ~13–15 kg) were fasted on the day of imaging and received an intranuscular. injection of 1 mL azaperone and 4 mL ketamine to introduce anesthesia. […] During narcosis, the animals maintained spontaneous respiration and no mandatory ventilation was applied. The subjects were sequentially imaged after an iv injection (contralateral ear vein) of 156 ± 54 MBq [^18F]FACH (0.63 ± 0.49 µg) in a PET/CT system (Biograph16, SIEMENS, Erlangen, Germany). The piglets were positioned prone with legs alongside the body on a custom-made plastic trough including a piglet head-holder (Figure 5). The PET acquisition was divided into a sequential (4 × 9 min, 3 × 12 min) and a static part (1 × 24 min, 1 × 30 min, 1 × 36 min), each of which was preceded by a low-dose CT to acquire structural data for attenuation correction (AC) and anatomical orientation (Figure 6). Post mortem, the urine was collected by bladder punctuation, weighted, and divided into three 1 mL samples for activity measurements in a gamma-counter (Packard Cobra II 5003 Auto Gamma Counting System, GMI, Ramsey, MN, USA).
PET data reconstruction was done using low-dose CT attenuation correction (AC) and an iterative OSEM algorithm with 4 iterations and 8 subsets. As the PET/CT system is in daily clinical use, it is periodically subjected to detector normalization and activity calibration. Furthermore, all peripheral activity-measuring devices to be used for the investigation (dose calibrator, gamma counter) are cross-calibrated in terms of timing and a radioactivity adjustment.
The image data were analyzed with ROVER (ABX, Radeberg, Germany; v. 3.0.46h). The organs were identified and manually delineated using 3D volumes of interest (VOI). The CT data were used for anatomical orientation and for image registration with the PET data. Relevant source organs like brain, gall bladder, large intestine, small intestine, stomach, heart, kidneys, liver, lungs, pancreas, red marrow (backbone, pelvis, sternum), spleen, thyroid, testes, skeleton (bone), and the urinary bladder were delineated and the time–activity data transformed into percentage of injected dose (%IDorgan) with Equation (2). (2) %IDorgant=Aorgant×cscant/A0t [%] where Aorgant is the activity in the organ at the time t; cscant is a calibration factor representing the theoretical body activity (derived from a whole body mask of a volume that equals the body dimentions of the animal) decay corrected to t and divided by the imaged body activity in each image frame at the time t, and A0t is the injected activity decay corrected to t0.
The dose calculation has been described by our group in detail before. Briefly, due to differences in weight, size, and metabolic rates between the animal species and the human volunteers, it is necessary to map the preclinical extracted biodistribution data to human circumstances. Thus, the animal biokinetic data (time scale and %ID values) were adapted to the human circumstances according to [22] to fit the human weight, size, and metabolic rates (Equations (3) and (4)). (3) thuman=tanimal[mhuman/manimal]^0.25 (4) [%ID]/organhuman=[%ID]/ganimal×mTBanimal[g]/mTBhuman[g]×morganhuman[g]
The TIACs were estimated by exponential fitting and the dosimetry estimation was performed using OLINDA/EXM software (v. 2.1). Finally, organ doses (OD) were estimated and multiplied by tissue weighting factors as published in ICRP103 [20].

SMILES: CCCN(CCC[18F])c1ccc(/C=C(\C#N)C(=O)O)c(OC)c1 [[^18F]FACH, (E)-2-cyano-3-{4-[(3-[^18F]fluoropropyl)(propyl)amino]-2-methoxyphenyl}acrylic acid]
- Effective dose (FACHpig1): 1.25E-02 mSv/MBq
- Effective dose contribution HT wT, Adrenals (FACHpig1): 1.26E-04 mSv/MBq
- Effective dose contribution HT wT, Brain (FACHpig1): 5.61E-05 mSv/MBq
- Effective dose contribution HT wT, Esophagus (FACHpig1): 4.16E-04 mSv/MBq
- Effective dose contribution HT wT, Eyes (FACHpig1): 0.00E+00 mSv/MBq
- Effective dose contribution HT wT, Gallbladder Wall (FACHpig1): 1.12E-04 mSv/MBq
- Effective dose contribution HT wT, Heart Wall (FACHpig1): 9.47E-05 mSv/MBq
- Effective dose contribution HT wT, Kidneys (FACHpig1): 2.47E-04 mSv/MBq
- Effective dose contribution HT wT, Left colon (FACHpig1): 7.77E-04 mSv/MBq
- Effective dose contribution HT wT, Liver (FACHpig1): 3.22E-04 mSv/MBq
- Effective dose contribution HT wT, Lungs (FACHpig1): 9.67E-04 mSv/MBq
- Effective dose contribution HT wT, Osteogenic Cells (FACHpig1): 2.00E-04 mSv/MBq
- Effective dose contribution HT wT, Pancreas (FACHpig1): 5.61E-04 mSv/MBq
- Effective dose contribution HT wT, Prostate (FACHpig1): 7.36E-05 mSv/MBq
- Effective dose contribution HT wT, Rectum (FACHpig1): 3.44E-04 mSv/MBq
- Effective dose contribution HT wT, Red Marrow (FACHpig1): 1.58E-03 mSv/MBq
- Effective dose contribution HT wT, Right colon (FACHpig1): 9.34E-04 mSv/MBq
- Effective dose contribution HT wT, Salivary Glands (FACHpig1): 1.03E-04 mSv/MBq
- Effective dose contribution HT wT, Small Intestine (FACHpig1): 1.74E-04 mSv/MBq
- Effective dose contribution HT wT, Spleen (FACHpig1): 9.48E-05 mSv/MBq
- Effective dose contribution HT wT, Stomach Wall (FACHpig1): 1.71E-03 mSv/MBq
- Effective dose contribution HT wT, Testes (FACHpig1): 4.40E-04 mSv/MBq
- Effective dose contribution HT wT, Thymus (FACHpig1): 9.49E-05 mSv/MBq
- Effective dose contribution HT wT, Thyroid (FACHpig1): 3.21E-04 mSv/MBq
- Effective dose contribution HT wT, Total Body (FACHpig1): 0.00E+00 mSv/MBq
- Effective dose contribution HT wT, Urinary Bladder Wall (FACHpig1): 2.74E-03 mSv/MBq
- Organ equivalent dose HT, Adrenals (FACHpig1): 1.36E-02 mSv/MBq
- Organ equivalent dose HT, Brain (FACHpig1): 5.61E-03 mSv/MBq
- Organ equivalent dose HT, Esophagus (FACHpig1): 1.04E-02 mSv/MBq
- Organ equivalent dose HT, Eyes (FACHpig1): 8.81E-03 mSv/MBq
- Organ equivalent dose HT, Gallbladder Wall (FACHpig1): 1.22E-02 mSv/MBq
- Organ equivalent dose HT, Heart Wall (FACHpig1): 1.03E-02 mSv/MBq
- Organ equivalent dose HT, Kidneys (FACHpig1): 2.67E-02 mSv/MBq
- Organ equivalent dose HT, Left colon (FACHpig1): 1.60E-02 mSv/MBq
- Organ equivalent dose HT, Liver (FACHpig1): 8.05E-03 mSv/MBq
- Organ equivalent dose HT, Lungs (FACHpig1): 8.05E-03 mSv/MBq
- Organ equivalent dose HT, Osteogenic Cells (FACHpig1): 2.00E-02 mSv/MBq
- Organ equivalent dose HT, Pancreas (FACHpig1): 6.08E-02 mSv/MBq
- Organ equivalent dose HT, Prostate (FACHpig1): 1.59E-02 mSv/MBq
- Organ equivalent dose HT, Rectum (FACHpig1): 1.50E-02 mSv/MBq
- Organ equivalent dose HT, Red Marrow (FACHpig1): 1.32E-02 mSv/MBq
- Organ equivalent dose HT, Right colon (FACHpig1): 1.93E-02 mSv/MBq
- Organ equivalent dose HT, Salivary Glands (FACHpig1): 1.03E-02 mSv/MBq
- Organ equivalent dose HT, Small Intestine (FACHpig1): 1.88E-02 mSv/MBq
- Organ equivalent dose HT, Spleen (FACHpig1): 1.03E-02 mSv/MBq
- Organ equivalent dose HT, Stomach Wall (FACHpig1): 1.43E-02 mSv/MBq
- Organ equivalent dose HT, Testes (FACHpig1): 1.10E-02 mSv/MBq
- Organ equivalent dose HT, Thymus (FACHpig1): 1.03E-02 mSv/MBq
- Organ equivalent dose HT, Thyroid (FACHpig1): 8.02E-03 mSv/MBq
- Organ equivalent dose HT, Total Body (FACHpig1): 1.15E-02 mSv/MBq
- Organ equivalent dose HT, Urinary Bladder Wall (FACHpig1): 6.86E-02 mSv/MBq
- Effective dose (FACHpig2): 1.19E-02 mSv/MBq
- Effective dose contribution HT wT, Adrenals (FACHpig2): 1.33E-04 mSv/MBq
- Effective dose contribution HT wT, Brain (FACHpig2): 4.35E-05 mSv/MBq
- Effective dose contribution HT wT, Esophagus (FACHpig2): 3.43E-04 mSv/MBq
- Effective dose contribution HT wT, Eyes (FACHpig2): 0.00E+00 mSv/MBq
- Effective dose contribution HT wT, Gallbladder Wall (FACHpig2): 4.78E-04 mSv/MBq
- Effective dose contribution HT wT, Heart Wall (FACHpig2): 8.50E-05 mSv/MBq
- Effective dose contribution HT wT, Kidneys (FACHpig2): 2.20E-04 mSv/MBq
- Effective dose contribution HT wT, Left colon (FACHpig2): 7.07E-04 mSv/MBq
- Effective dose contribution HT wT, Liver (FACHpig2): 1.11E-03 mSv/MBq
- Effective dose contribution HT wT, Lungs (FACHpig2): 9.55E-04 mSv/MBq
- Effective dose contribution HT wT, Osteogenic Cells (FACHpig2): 2.34E-04 mSv/MBq
- Effective dose contribution HT wT, Pancreas (FACHpig2): 2.11E-04 mSv/MBq
- Effective dose contribution HT wT, Prostate (FACHpig2): 4.73E-05 mSv/MBq
- Effective dose contribution HT wT, Rectum (FACHpig2): 3.17E-04 mSv/MBq
- Effective dose contribution HT wT, Red Marrow (FACHpig2): 1.97E-03 mSv/MBq
- Effective dose contribution HT wT, Right colon (FACHpig2): 1.58E-03 mSv/MBq
- Effective dose contribution HT wT, Salivary Glands (FACHpig2): 7.07E-05 mSv/MBq
- Effective dose contribution HT wT, Small Intestine (FACHpig2): 2.47E-04 mSv/MBq
- Effective dose contribution HT wT, Spleen (FACHpig2): 8.20E-05 mSv/MBq
- Effective dose contribution HT wT, Stomach Wall (FACHpig2): 1.22E-03 mSv/MBq
- Effective dose contribution HT wT, Testes (FACHpig2): 2.83E-04 mSv/MBq
- Effective dose contribution HT wT, Thymus (FACHpig2): 7.07E-05 mSv/MBq
- Effective dose contribution HT wT, Thyroid (FACHpig2): 2.52E-04 mSv/MBq
- Effective dose contribution HT wT, Total Body (FACHpig2): 0.00E+00 mSv/MBq
- Effective dose contribution HT wT, Urinary Bladder Wall (FACHpig2): 1.25E-03 mSv/MBq
- Organ equivalent dose HT, Adrenals (FACHpig2): 1.44E-02 mSv/MBq
- Organ equivalent dose HT, Brain (FACHpig2): 4.35E-03 mSv/MBq
- Organ equivalent dose HT, Esophagus (FACHpig2): 8.58E-03 mSv/MBq
- Organ equivalent dose HT, Eyes (FACHpig2): 6.29E-03 mSv/MBq
- Organ equivalent dose HT, Gallbladder Wall (FACHpig2): 5.18E-02 mSv/MBq
- Organ equivalent dose HT, Heart Wall (FACHpig2): 9.21E-03 mSv/MBq
- Organ equivalent dose HT, Kidneys (FACHpig2): 2.38E-02 mSv/MBq
- Organ equivalent dose HT, Left colon (FACHpig2): 1.46E-02 mSv/MBq
- Organ equivalent dose HT, Liver (FACHpig2): 2.77E-02 mSv/MBq
- Organ equivalent dose HT, Lungs (FACHpig2): 7.96E-03 mSv/MBq
- Organ equivalent dose HT, Osteogenic Cells (FACHpig2): 2.34E-02 mSv/MBq
- Organ equivalent dose HT, Pancreas (FACHpig2): 2.28E-02 mSv/MBq
- Organ equivalent dose HT, Prostate (FACHpig2): 1.02E-02 mSv/MBq
- Organ equivalent dose HT, Rectum (FACHpig2): 1.38E-02 mSv/MBq
- Organ equivalent dose HT, Red Marrow (FACHpig2): 1.64E-02 mSv/MBq
- Organ equivalent dose HT, Right colon (FACHpig2): 3.25E-02 mSv/MBq
- Organ equivalent dose HT, Salivary Glands (FACHpig2): 7.07E-03 mSv/MBq
- Organ equivalent dose HT, Small Intestine (FACHpig2): 2.67E-02 mSv/MBq
- Organ equivalent dose HT, Spleen (FACHpig2): 8.88E-03 mSv/MBq
- Organ equivalent dose HT, Stomach Wall (FACHpig2): 1.01E-02 mSv/MBq
- Organ equivalent dose HT, Testes (FACHpig2): 7.08E-03 mSv/MBq
- Organ equivalent dose HT, Thymus (FACHpig2): 7.66E-03 mSv/MBq
- Organ equivalent dose HT, Thyroid (FACHpig2): 6.30E-03 mSv/MBq
- Organ equivalent dose HT, Total Body (FACHpig2): 9.14E-03 mSv/MBq
- Organ equivalent dose HT, Urinary Bladder Wall (FACHpig2): 3.12E-02 mSv/MBq
- Effective dose (FACHpig3): 1.29E-02 mSv/MBq
- Effective dose contribution HT wT, Adrenals (FACHpig3): 1.35E-04 mSv/MBq
- Effective dose contribution HT wT, Brain (FACHpig3): 4.10E-05 mSv/MBq
- Effective dose contribution HT wT, Esophagus (FACHpig3): 3.24E-04 mSv/MBq
- Effective dose contribution HT wT, Eyes (FACHpig3): 0.00E+00 mSv/MBq
- Effective dose contribution HT wT, Gallbladder Wall (FACHpig3): 8.05E-04 mSv/MBq
